# Source: patent US20210361575A1, “LIPID PRODRUGS FOR USE IN DRUG DELIVERY” (NEW MEXICO TECH UNIVERSITY RESEARCH PARK CORPORATION, priority 2018, published 2021)
# Read-outs that look alike come from different tables or passages of the source.
# Tests used:
# HeLa cells [1] = test: MTT cytotoxicity of 2T-T and 2T-C prodrug-loaded liposomes; assay type: cell-based; conditions: Homo sapiens
# Protocol: To assess the cytotoxicity of 2T-T prodrug-loaded liposomes, HeLa cells were exposed to different concentrations of topotecan or 2T-T loaded liposomes for 72 hours. After the 72 hour incubation period, cell viability was assessed via an MTT assay.
# To assess the cytotoxicity of 2T-C prodrug-loaded liposomes, HeLa cells were exposed to different concentrations of cytarabine or 2T-C(NH2 attachment) loaded liposomes for 48 hours. After the 48 hour incubation period, cell viability was assessed via a MTT assay.
# MCF-7 cells = test: MTT cytotoxicity of prodrug-loaded liposomes and parent compounds, MCF-7; assay type: cell-based, Human; conditions: MCF7, 48 hours, free parent compounds or prodrug-incorporated liposomes (20 mol %), read-out: cell viability (MTT), potency
# [2] = 2T-P and 2T-N incorporation efficiency in liposomes (UV-Vis); assay type: physicochemical; conditions: parent compound in liposomes
# Protocol: Parent compound and prodrug concentrations in liposomes were determined using UV-Vis spectrophotometry; (2T-P: 292 nm; 2T-N: 285 nm). PLL were prepared at varying concentrations between 0 mol % to 50 mol %. The lipid amounts remained equivalent for samples under 50 mol %. Each sample was extruded through a 200 nm pore membrane for a total of 11 passes. Prior and post extrusion liposomes were ruptured by dissolution in DMSO (liposome suspension/DMSO, 1:9, v/v). Samples were analyzed in a quartz cuvette. The following parameters were used: scan speed: 120 nm/min; bandwidth: 2 nm; integration time: 0.15 sec; data interval: 0.30 nm; start wavelength: 500 nm; end wavelength: 190 nm.
# N and P (SCHEME 1) are hydrophobic compounds that have been altered to contain an amphiphilic tail (2T-P and 2T-N), altering their incorporation within liposomes, which can be characterized using UV-Vis. This technique measures the decreasing transmittance through a sample surface. The absorption of the liposomes at varying concentrations (after removal of unincorporated material) can be used to calculate how much of a drug has been incorporated into liposomes.
# MCF10A cells = test: MTT cytotoxicity of prodrug-loaded liposomes and parent compounds, MCF10A; assay type: cell-based; conditions: 48 hours, free parent compounds or prodrug-incorporated liposomes (20 mol %), read-out: cell viability (MTT), potency
# HeLa cells [3] = test: MTT cytotoxicity of prodrug-loaded liposomes and parent compounds, HeLa; assay type: cell-based, Human; conditions: 48 hours, free parent compounds or prodrug-incorporated liposomes (20 mol %), read-out: cell viability (MTT), potency
# [4] = 2T-T incorporation in liposomes (UV-vis, pre- and post-extrusion); assay type: physicochemical; conditions: 2T-T liposomes; for Actual Drug Incorporation - Post: post-extrusion; for Actual Drug Incorporation - Pre: pre-extrusion
# Protocol: 2T-T liposomes were produced with increasing concentrations of 2T-T, and passed through an extruder to remove any unincorporated 2T-T from the liposome solution. Liposome solutions were analyzed both pre- and post-extrusion using UV-vis spectroscopy with a scanning range of 200 nm-500 nm, 2 nm bandwidth, […], 0.5 nm data interval, and 100 nm/min scan speed. […] Incorporation limits were analyzed up to 70 mol % (147 uM).
# [5] = Liposomal particle size distribution and stability (DLS); assay type: physicochemical; set-up: liposome diameter (DLS), Pre / liposome diameter (DLS), Post: unit not given beside the values; conditions: for PDI, Post / liposome diameter (DLS), Post: post-extrusion; for PDI, Pre / liposome diameter (DLS), Pre: pre-extrusion
# Source text: Liposomal size distribution was characterized via dynamic light scattering (DLS). Measurements were taken with disposable polystyrene sizing cuvettes containing the liposome suspensions. Reported DLS measurements are averages of 3 individually prepared liposome samples.
# The size distribution of the parent compounds and prodrug loaded liposomes were monitored over time using dynamic light scattering (DLS).
# The size distribution of 2T-T liposomes were characterized via DLS measurement both pre- and post-extrusion. The standard deviations of liposome diameter were lower post extrusion. […] The size distributions of 2T-T liposomes at loaded with various concentrations of 2T-T can be seen in TABLE 2, and FIGS. 10-11. […]
# [6] = Differential scanning calorimetry of loaded liposomes; assay type: physicochemical; conditions: increasing concentration, prodrugs 0 to 37 mol %, parents 0 to 31 mol %; compared to empty liposomes; not extruded
# Protocol: Prodrug-loaded liposome (PLL) samples were prepared using 20 mg of lipid per 1 mL of […] for each compound with increasing prodrug concentrations without extrusion. Deionized water was used as the calibration standard. 10 μL from each liposome suspension was transferred and sealed in an aluminum DSC pan. DSC measurements were taken at room temperature, and the sample was then heated from 15° C. to 55° C. at 5° C./min.
# DSC is a thermal analytical technique useful for designing lipid drug delivery systems, like liposomes, by determining the compatibility of mixed molecules and compositions with the liposome bilayer. The thermotropic behavior of the liposomes at varying prodrug concentrations is measured to determine whether insertion of the molecules modifies the phase transition temperature. The pre-phase transition was masked by PEG-2000. […] As the concentration was increased, the phase transition returned to the phase transition of empty liposomes. […] All liposome suspensions used for DSC analysis were prepared in deionized water instead of sodium buffer to prevent undesired interactions. The samples were not extruded.
smiles,measurement,setting,value
CC[C@@]1(O)C(=O)OCc2c1cc1n(c2=O)Cc2cc3c(CN(C)C)c(O)ccc3nc2-1 [topotecan],IC50,HeLa cells [1]; 72 hours,51 ± 1 nM
"O=C1OCC2=C1C(c1cc(Br)cc(Br)c1)c1ccc3ccc(O)cc3c1N2 (centres unmarked) [N, 7-(3,5-Dibromophenyl)-2-hydroxy-7,11-dihydrobenzo[h]-furo[3,4-b]quinolin-8(10H)-one]",IC50,MCF-7 cells; Homo sapiens,3 nM
same,maximum measured loading,[2],~1.1 mol %
same,IC50,"MCF10A cells; Homo sapiens, MCF-10A",5 nM
same,IC50,HeLa cells [3]; Homo sapiens,5 ± 1 nM
CCCCCCCCCCCCCCCC(=O)OCC(COP(=O)([O-])OCCNC(=O)CCCC(=O)Oc1ccc2nc3c(cc2c1CN(C)C)Cn1c-3cc2c(c1=O)COC(=O)[C@@]2(O)CC)OC(=O)CCCCCCCCCCCCCCC.[Na+] (some centres unmarked) [2T-T],Actual Drug Incorporation - Post,[4]; predicted 10 mol % (28.2 uM),22.1 ± 7.9 µM
same,Actual Drug Incorporation - Pre,[4]; predicted 10 mol % (28.2 uM),25.3 ± 6.6 µM
same,Actual Drug Incorporation - Post,[4]; predicted 20 mol % (53.4 uM),42.8 ± 4.8 µM
same,Actual Drug Incorporation - Pre,[4]; predicted 20 mol % (53.4 uM),46.8 ± 4.8 µM
same,Actual Drug Incorporation - Post,[4]; predicted 30 mol % (76.0 uM),66.2 ± 4.9 µM
same,Actual Drug Incorporation - Pre,[4]; predicted 30 mol % (76.0 uM),71.5 ± 5.1 µM
same,Actual Drug Incorporation - Post,[4]; predicted 40 mol % (96.5 uM),77.9 ± 12.3 µM
same,Actual Drug Incorporation - Pre,[4]; predicted 40 mol % (96.5 uM),82.6 ± 13.1 µM
same,Actual Drug Incorporation - Post,[4]; predicted 50* mol % (115.1 uM),116.2 µM
same,Actual Drug Incorporation - Pre,[4]; predicted 50* mol % (115.1 uM),113.4 µM
same,Actual Drug Incorporation - Post,[4]; predicted 60* mol % (132.0 uM),126.2 µM
same,Actual Drug Incorporation - Pre,[4]; predicted 60* mol % (132.0 uM),125.4 µM
same,Actual Drug Incorporation - Post,[4]; predicted 70* mol % (147.6 uM),133.7 µM
same,Actual Drug Incorporation - Pre,[4]; predicted 70* mol % (147.6 uM),133.0 µM
same,"PDI, Post",[5]; 2T-T 10 mol %,0.3 ± 0
same,"liposome diameter (DLS), Post",[5]; 2T-T 10 mol %,130 ± 7
same,"PDI, Pre",[5]; 2T-T 10 mol %,0.3 ± 0
same,"liposome diameter (DLS), Pre",[5]; 2T-T 10 mol %,102 ± 19
same,"PDI, Post",[5]; 2T-T 20 mol %,0.3 ± 0
same,"liposome diameter (DLS), Post",[5]; 2T-T 20 mol %,129 ± 9
same,"PDI, Pre",[5]; 2T-T 20 mol %,0.3 ± 0.1
same,"liposome diameter (DLS), Pre",[5]; 2T-T 20 mol %,121 ± 16
same,"PDI, Post",[5]; 2T-T 30 mol %,0.3 ± 0
same,"liposome diameter (DLS), Post",[5]; 2T-T 30 mol %,118 ± 25
same,"PDI, Pre",[5]; 2T-T 30 mol %,0.3 ± 0
same,"liposome diameter (DLS), Pre",[5]; 2T-T 30 mol %,98 ± 28
same,"PDI, Post",[5]; 2T-T 40 mol %,0.3 ± 0
same,"liposome diameter (DLS), Post",[5]; 2T-T 40 mol %,123 ± 10
same,"PDI, Pre",[5]; 2T-T 40 mol %,0.3 ± 0
same,"liposome diameter (DLS), Pre",[5]; 2T-T 40 mol %,114 ± 24
same,"PDI, Post",[5]; 2T-T 50* mol %,0.3
same,"liposome diameter (DLS), Post",[5]; 2T-T 50* mol %,122.4
same,"PDI, Pre",[5]; 2T-T 50* mol %,0.3
same,"liposome diameter (DLS), Pre",[5]; 2T-T 50* mol %,122.4
same,"PDI, Post",[5]; 2T-T 60* mol %,0.3
same,"liposome diameter (DLS), Post",[5]; 2T-T 60* mol %,88.76
same,"PDI, Pre",[5]; 2T-T 60* mol %,0.5
same,"liposome diameter (DLS), Pre",[5]; 2T-T 60* mol %,182.9
same,"PDI, Post",[5]; 2T-T 70* mol %,0.3
same,"liposome diameter (DLS), Post",[5]; 2T-T 70* mol %,75.43
same,"PDI, Pre",[5]; 2T-T 70* mol %,0.4
same,"liposome diameter (DLS), Pre",[5]; 2T-T 70* mol %,172.1
"COc1cc([C@@H]2c3cc4c(cc3[C@H](O)[C@H]3COC(=O)[C@H]23)OCO4)cc(OC)c1OC [P, podophyllotoxin]",IC50,MCF-7 cells; Homo sapiens,9 ± 4 nM
same,maximum measured loading,[2],~11 mol %
same,IC50,"MCF10A cells; Homo sapiens, MCF-10A",14 ± 4 nM
same,IC50,HeLa cells [3]; Homo sapiens,9 ± 1 nM
"CCCCCCCCCCCCCCCC(=O)OCC(COP(=O)([O-])OCCNC(=O)CCCC(=O)O[C@@H]1c2cc3c(cc2[C@H](c2cc(OC)c(OC)c(OC)c2)[C@@H]2C(=O)OC[C@H]21)OCO3)OC(=O)CCCCCCCCCCCCCCC.[Na+] (stereo partly drawn) [2T-P, Sodium 2,3-bis (palmitoyloxy) propyl (2-(5-oxo-5-(((5S,5aS,8aS,9S)-8-oxo-9-(3,4,5-trimethoxyphenyl)-5,5a,6,8,8a,9-hexahydrofuro[3′,4′:6,7]naphtha[2,3-d][1,3]dioxol-5-yl)oxy)pentanamido)ethyl)phosphate]",IC50,MCF-7 cells,2560 ± 126 nM
same,IC50,MCF10A cells,1540 ± 130 nM
same,IC50,HeLa cells [3],1370 ± 44 nM
same,phase transition temperature behaviour (DSC thermograms),[6],shallow decreasing phase transition temperatures
Nc1ccn([C@@H]2O[C@H](CO)[C@@H](O)[C@@H]2O)c(=O)n1 [cytarabine],IC50,HeLa cells [1]; 48 hours,4450 ± 6290 nM
